Reference: US20260137634A1, “USE OF STILBENE DERIVATIVE IN PREVENTION AND/OR TREATMENT OF ULCERS” (THEDERMA SHANGHAI CO., LTD., priority 2022, published 2026)

Key:
[1] = system: SD male rat oral ulcer model; assay: Efficacy in SD male rat oral ulcer model after 7 days of treatment; assay type: in vivo; conditions: SD male rats; for Ulcer healing rate / Ulcer area Day 7: 1 mg/rat; for Ulcer healing rate: 2 times daily for 7 days; for Ulcer healing rate / Ulcer area Day 7 / Ulcer area Day 0: n = 6; for Ulcer area Day 7: 50 μL applied to ulcer 2 times daily for 7 days; for Ulcer area Day 0: glacial acetic acid oral ulcer, Day 0 (baseline)
Description: Eighteen SD male rats were randomly divided into 3 groups, i.e., a model group (propylene glycol vehicle group), a 2% indigo group (1 mg/rat), and a 2% tapinarof group (1 mg/rat). Oral ulcer modeling: a 1 cm×0.6 cm filter paper (soaked into a 60% glacial acetic acid solution) was placed on the labial mucosa of the alveolar bone beneath the lower incisor in a rat and maintained for 1 min. Administration: after the rats were anesthetized, 50 μL of the solution in each group was pipetted by using a pipettor and evenly applied to the ulcer part 2 times daily for 7 consecutive days. After each group was treated with glacial acetic acid, symptoms such as pseudomembrane covering, central depression, red and swollen edges, significant pain response after stimulation, etc. appeared, and after the administration was completed, various symptoms were relieved.

[2] = system: DB/DB male mouse diabetic foot ulcer model; assay: Efficacy in DB/DB male mouse diabetic foot ulcer model after 10 days of treatment; assay type: in vivo; conditions: DB/DB male mice; for Ulcer healing rate / Ulcer area Day 10: 1 mg/mouse; for Ulcer healing rate: 2 times daily for 10 days, ** p<0.05 vs vehicle; for Ulcer healing rate / Ulcer area Day 10 / Ulcer area Day 0: n = 6; for Ulcer area Day 10: 50 μL applied to ulcer 2 times daily for 10 days; for Ulcer area Day 0: foot ulcer, Day 0 (baseline)
Description: Eighteen DB/DB male mice were randomly divided into 3 groups, i.e., a model group (propylene glycol vehicle group), a 2% indigo group (1 mg/mouse), and a 2% tapinarof group (1 mg/mouse).
Foot ulcer modeling: after the mouse was anesthetized, the foot was disinfected; a 4 mm×5 mm rectangular region was marked on the dorsum of the foot; and the skin and fascia were removed within the region.
Administration: on the dorsum of the foot of the mouse, 50 μL of the solution in each group was pipetted by using a pipettor and evenly applied to the ulcer part 2 times daily for 10 consecutive days, and the length and the width of the ulcer were recorded.
Statistical analysis was performed by using one-way ANOVA. As compared to the vehicle group, ** indicates p<0.05.

SMILES: O=C1/C(=C2\Nc3ccccc3C2=O)Nc2ccccc21 [2% indigo, indigo, reference compound]
- Ulcer healing rate [1]: 52%
- Ulcer area Day 7 [1]: 22.09 mm^2
- Ulcer area Day 0 [1]: 46.33 mm^2
- Ulcer healing rate [2]: 26%
- Ulcer area Day 10 [2]: 13.30 mm^2
- Ulcer area Day 0 [2]: 17.99 mm^2

SMILES: CC(C)c1c(O)cc(/C=C/c2ccccc2)cc1O [2% tapinarof, tapinarof]
- Ulcer healing rate [1]: 58%
- Ulcer area Day 7 [1]: 19.70 mm^2
- therapeutic effect in rat oral ulcer model (in words) ([1]; 7 days of treatment): good therapeutic effect, and its efficacy was superior to that of 2% indigo
- Ulcer area Day 0 [1]: 46.90 mm^2
- Ulcer healing rate [2]: 39%**
- Ulcer area Day 10 [2]: 10.93 mm^2
- effect in mouse diabetic foot ulcer model (in words) ([2]; after 10 days of administration): significant inhibitory effect, which was superior to that of the 2% indigo group
- Ulcer area Day 0 [2]: 18.19 mm^2
